Measurements published in patent US20240246908A1 (ORION CORPORATION, priority 2021, published 2024).

The compounds below were run on YAP-TEAD (assay: TEAD inhibition, Hippo Pathway TEAD Reporter MCF-7 luciferase assay). Conditions: Homo sapiens, MCF7, 24 h, Hippo Pathway TEAD Reporter MCF-7 cells, luciferase activity after 24 h; read-out: IC50 of the test compounds on YAP-TEAD inhibition (Group).
Type: cell-based
Procedure, shortened: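 MCF-7 cells carrying a TEAD-responsive firefly luciferase reporter, with nuclear YAP1 driving constitutive expression, were treated the day after plating with compounds (11 concentrations, 4 replicates; 0.1% DMSO control). After 24 h, luciferase was read by ONE-Glo luminescence and IC50 determined.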

Row | SMILES | IC50
1 | COc1cc(NC(=O)C2CCC(=O)N2C)cc(OC2CCC(C(F)(F)F)CC2)c1 (centres unmarked) [Compound 264] | < 0.05 µM
2 | COc1ccc(O[C@H]2CCC[C@H](C(F)(F)F)C2)cc1NC(=O)C1CCC(=O)N1 (stereo partly drawn) [Compound 267, N-(2-Methoxy-5-(((1S,3S)-3-(trifluoromethyl)cyclohexyl)oxy)phenyl)-5-oxo-pyrrolidine-2-carboxamide] | 0.05 to 0.3 µM
3 | COc1ccc(O[C@@H]2CCC[C@H](C(F)(F)F)C2)cc1NC(=O)[C@H]1CCC(=O)N1C [Compound 268, (R)—N-(2-Methoxy-5-(((1R,3S)-3-(trifluoromethyl)cyclohexyl)oxy)phenyl)-1-methyl-5-oxopyrrolidine-2-carboxamide] | 0.05 to 0.3 µM
4 | CN1C(=O)CCC1C(=O)Nc1cc(OC2CCC(C(F)(F)F)CC2)ccc1F (centres unmarked) [Compound 270, N-(2-Fluoro-5-((4-(trifluoromethyl)cyclohexyl)oxy)phenyl)-1-methyl-5-oxo-pyrrolidine-2-carboxamide] | 0.05 to 0.3 µM
5 | COc1ccc(NC(=O)C2CCC(=O)N2C)cc1O[C@H]1CC[C@H](C(F)(F)F)CC1 (stereo partly drawn) [Compound 271, (R)—N-(4-methoxy-3-(((1r,4R)-4-(trifluoromethyl)cyclohexyl)oxy)phenyl)-1-methyl-5-oxopyrrolidine-2-carboxamide] | 0.05 to 0.3 µM
6 | COc1ccc(NC(=O)[C@@H]2CCC(=O)N2C)cc1O[C@H]1CC[C@@H](C(F)(F)F)CC1 [Compound 272, (R)—N-(4-Methoxy-3-(((1s,4S)-4-(trifluoromethyl)cyclohexyl)oxy)phenyl)-1-methyl-5-oxopyrrolidine-2-carboxamide] | 0.301 to 2 µM
7 | COc1cc(NC(=O)C2CCC(=O)N2C)cc(Oc2cccc(C(F)(F)F)c2)c1 (centres unmarked) [Compound 273, N-(3-Methoxy-5-(3-(trifluoromethyl)phenoxy)phenyl)-1-methyl-5-oxo-pyrrolidine-2-carboxamide] | 0.05 to 0.3 µM
8 | COc1cc(NC(=O)C2CCC(=O)N2C)cc(Oc2ccc(Cl)c(C(F)(F)F)c2)c1 (centres unmarked) [Compound 274, N-(3-(4-Chloro-3-(trifluoromethyl)phenoxy)-5-methoxyphenyl)-1-methyl-5-oxopyrrolidine-2-carboxamide] | 0.05 to 0.3 µM
9 | COc1ccc(Oc2ccc(C(F)(F)F)cn2)cc1NC(=O)C1CCC(=O)N1C (centres unmarked) [Compound 276, N-(2-methoxy-5-((5-(trifluoromethyl)pyridin-2-yl)oxy)phenyl)-1-methyl-5-oxopyrrolidine-2-carboxamide] | < 0.05 µM
10 | COc1cc(NC(=O)C2CCC(=O)N2C)cc(Oc2ccc(C(F)(F)F)cn2)c1 (centres unmarked) [Compound 277, N-(3-Methoxy-5-((5-(trifluoromethyl)pyridin-2-yl)oxy)phenyl)-1-methyl-5-oxopyrrolidine-2-carboxamide] | 0.05 to 0.3 µM
11 | COc1ccc(OC2CCCCC2)cc1NC(=O)C1CCC(=O)N1C (centres unmarked) [Compound 286, N-(5-(Cyclohexyloxy)-2-methoxyphenyl)-1-methyl-5-oxopyrrolidine-2-carboxamide] | 0.05 to 0.3 µM
12 | COc1ccc(Oc2ccc(Cl)cn2)cc1NC(=O)[C@@H]1CCC(=O)N1C [Compound 288, (S)—N-(5-((5-Chloropyridin-2-yl)oxy)-2-methoxyphenyl)-1-methyl-5-oxo-pyrrolidine-2-carboxamide] | 0.05 to 0.3 µM
13 | COc1ccc(Oc2cccc(C(F)(F)F)c2)cc1NC(=O)C1CN(C(C)=O)C1 [Compound 289, 1-Acetyl-N-(2-methoxy-5-(3-(trifluoromethyl)phenoxy)phenyl)azetidine-3-carboxamide] | 0.301 to 2 µM
14 | COc1ccc(Oc2ccc(OC(F)(F)F)cc2)cc1NC(=O)[C@H]1CCC(=O)N1C [Compound 290, (R)—N-(2-methoxy-5-(4-(trifluoromethoxy)phenoxy)phenyl)-1-methyl-5-oxopyrrolidine-2-carboxamide] | < 0.05 µM
15 | COc1ccc(Oc2cccc(OC(F)(F)F)c2)cc1NC(=O)C1CCC(=O)N1C (centres unmarked) [Compound 291, N-(2-methoxy-5-(3-(trifluoromethoxy)phenoxy)phenyl)-1-methyl-5-oxo-pyrrolidine-2-carboxamide] | 0.05 to 0.3 µM
16 | COc1ccc(Oc2ccc(C(F)F)cc2)cc1NC(=O)C1CCC(=O)N1C (centres unmarked) [Compound 292, N-(5-(4-(Difluoromethyl)phenoxy)-2-methoxyphenyl)-1-methyl-5-oxo-pyrrolidine-2-carboxamide] | < 0.05 µM
17 | COc1cc(Oc2ccc(OC)c(NC(=O)[C@H]3CCC(=O)N3C)c2)ccc1F [Compound 293, (R)—N-(5-(4-Fluoro-3-methoxyphenoxy)-2-methoxyphenyl)-1-methyl-5-oxo-pyrrolidine-2-carboxamide] | 0.05 to 0.3 µM
18 | COc1ccc(Oc2ccc(OC)c(NC(=O)C3CCC(=O)N3C)c2)cc1F (centres unmarked) [Compound 295, N-(5-(3-Fluoro-4-methoxyphenoxy)-2-methoxyphenyl)-1-methyl-5-oxo-pyrrolidine-2-carboxamide] | 0.05 to 0.3 µM
19 | COc1ccc(Sc2ccc(F)c(F)c2)cc1NC(=O)C1CCC(=O)N1C (centres unmarked) [Compound 297, N-(5-((3,4-Difluorophenyl)thio)-2-methoxyphenyl)-1-methyl-5-oxopyrrolidine-2-carboxamide] | < 0.05 µM
20 | COc1ccc(Sc2ccc(F)c(F)c2)cc1NC(=O)C1CCC(=O)N1 (centres unmarked) [Compound 298, N-(5-((3,4-Difluorophenyl)thio)-2-methoxyphenyl)-5-oxopyrrolidine-2-carboxamide] | < 0.05 µM
21 | COc1ccc(Oc2cccc(Br)c2)cc1NC(=O)C1CCC(=O)N1C (centres unmarked) [Compound 299, N-(5-(3-Bromophenoxy)-2-methoxyphenyl)-1-methyl-5-oxopyrrolidine-2-carboxamide] | < 0.05 µM
22 | COc1ccc(Oc2ccc(OC(F)(F)F)cc2)cc1NC(=O)C1CCC(=O)N1 (centres unmarked) [Compound 300, N-(2-Methoxy-5-(4-(trifluoromethoxy)phenoxy)phenyl)-5-oxopyrrolidine-2-carboxamide] | < 0.05 µM
23 | COc1ccc(Oc2ccc(OC(C)C)cc2)cc1NC(=O)C1CCC(=O)N1 (centres unmarked) [Compound 301, N-(5-(4-Isopropoxyphenoxy)-2-methoxyphenyl)-5-oxopyrrolidine-2-carboxamide] | 0.301 to 2 µM
24 | COc1ccc(OCC2CC(F)(F)C2)cc1NC(=O)C1CCC(=O)N1C (centres unmarked) [Compound 302, N-(5-((3,3-Difluorocyclobutyl)methoxy)-2-methoxyphenyl)-1-methyl-5-oxopyrrolidine-2-carboxamide] | 0.301 to 2 µM
25 | CN1C(=O)CCC1C(=O)Nc1cc(Oc2ccc(F)cc2)cc(C(F)(F)F)c1 (centres unmarked) [Compound 303, N-(3-(4-Fluorophenoxy)-5-(trifluoromethyl)phenyl)-1-methyl-5-oxopyrrolidine-2-carboxamide] | 0.301 to 2 µM

Continued, values first:

Row | IC50 | SMILES
26 | < 0.05 µM | COc1ccc(OC2CCC(C(F)(F)F)CC2)cc1NC(=O)[C@H]1CCC(=O)N1C (stereo partly drawn) [Compound 265, (R)—N-(2-Methoxy-5-((4-(trifluoromethyl)cyclohexyl)oxy)phenyl)-1-methyl-5-oxopyrrolidine-2-carboxamide]
27 | 0.05 to 0.3 µM | COc1ccc(O[C@@H]2CCC[C@H](C(F)(F)F)C2)cc1NC(=O)C1CCC(=O)N1 (stereo partly drawn) [Compound 266, N-(2-Methoxy-5-(((1R,3S)-3-(trifluoromethyl)cyclohexyl)oxy)phenyl)-5-oxo-pyrrolidine-2-carboxamide]
28 | 0.05 to 0.3 µM | COc1ccc(O[C@H]2CCC[C@H](C(F)(F)F)C2)cc1NC(=O)[C@H]1CCC(=O)N1C [Compound 269, (R)—N-(2-Methoxy-5-(((1S,3S)-3-(trifluoromethyl)cyclohexyl)oxy)phenyl)-1-methyl-5-oxopyrrolidine-2-carboxamide]
29 | < 0.05 µM | COc1cc(NC(=O)[C@H]2CCC(=O)N2C)cc(Oc2ccc(C(F)(F)F)cc2)c1 [Compound 278, (R)—N-(3-Methoxy-5-(4-(trifluoromethyl)phenoxy)phenyl)-1-methyl-5-oxo-pyrrolidine-2-carboxamide]
30 | < 0.05 µM | COc1cc(NC(=O)C2CCC(=O)N2C)cc(Oc2ccc(C(F)(F)F)cc2)c1 (centres unmarked) [Compound 279, N-(3-Methoxy-5-(4-(trifluoromethyl)phenoxy)phenyl)-1-methyl-5-oxo-pyrrolidine-2-carboxamide]
31 | 0.05 to 0.3 µM | CN1C(=O)CC[C@@H]1C(=O)Nc1cc(Oc2ccc(C(F)(F)F)cn2)cc2cccnc12 [Compound 281, (R)-1-Methyl-5-oxo-N-(6-((5-(trifluoromethyl)pyridin-2-yl)oxy)quinolin-8-yl)pyrrolidine-2-carboxamide]
32 | < 0.05 µM | COc1cc(NC(=O)[C@H]2CCC(=O)N2C)cc(OC2CCC(C(F)(F)F)CC2)c1 (some centres unmarked) [Compound 282]
33 | < 0.05 µM | COc1ccc(Oc2ccc(C(F)(F)F)cn2)cc1NC(=O)[C@H]1CCC(=O)N1C [Compound 283, (R)—N-(2-Methoxy-5-((5-(trifluoromethyl)pyridin-2-yl)oxy)phenyl)-1-methyl-5-oxopyrrolidine-2-carboxamide]
34 | 0.05 to 0.3 µM | COc1cc(NC(=O)C2CCC(=O)N2C)cc(Oc2ccc(F)c(F)c2)c1 (centres unmarked) [Compound 284, N-(3-(3,4-Difluorophenoxy)-5-methoxyphenyl)-1-methyl-5-oxopyrrolidine-2-carboxamide]
35 | 0.05 to 0.3 µM | COc1cc(NC(=O)[C@H]2CCC(=O)N2C)cc(Oc2ccc(F)c(F)c2)c1 [Compound 285, (R)—N-(3-(3,4-Difluorophenoxy)-5-methoxyphenyl)-1-methyl-5-oxopyrrolidine-2-carboxamide]
36 | 0.301 to 2 µM | COc1ccc(OC2C=CCCC2)cc1NC(=O)C1CCC(=O)N1C (centres unmarked) [Compound 287, N-(5-(Cyclohex-2-en-1-yloxy)-2-methoxyphenyl)-1-methyl-5-oxopyrrolidine-2-carboxamide]
37 | < 0.05 µM | COc1ccc(OCC2CCCCC2)cc1NC(=O)C1CCC(=O)N1C (centres unmarked) [Compound 294, N-(5-(Cyclohexylmethoxy)-2-methoxyphenyl)-1-methyl-5-oxopyrrolidine-2-carboxamide]
38 | < 0.05 µM | COc1ccc(OC2CCC(C)(C)CC2)cc1NC(=O)C1CCC(=O)N1C (centres unmarked) [Compound 296, N-(5-((4,4-Dimethylcyclohexyl)oxy)-2-methoxyphenyl)-1-methyl-5-oxo-pyrrolidine-2-carboxamide]
